This note sets out measurements from ChEMBL document CHEMBL2034873, “Discovery of a Novel Series of CHK1 Kinase Inhibitors with a Distinctive Hinge Binding Mode” (ACS Med Chem Lett, 2012).

In assay [1] the target is T1, Serine/threonine-protein kinase Chk1 (Homo sapiens, UniProt O14757).
T1 sequence (O14757 whole entry): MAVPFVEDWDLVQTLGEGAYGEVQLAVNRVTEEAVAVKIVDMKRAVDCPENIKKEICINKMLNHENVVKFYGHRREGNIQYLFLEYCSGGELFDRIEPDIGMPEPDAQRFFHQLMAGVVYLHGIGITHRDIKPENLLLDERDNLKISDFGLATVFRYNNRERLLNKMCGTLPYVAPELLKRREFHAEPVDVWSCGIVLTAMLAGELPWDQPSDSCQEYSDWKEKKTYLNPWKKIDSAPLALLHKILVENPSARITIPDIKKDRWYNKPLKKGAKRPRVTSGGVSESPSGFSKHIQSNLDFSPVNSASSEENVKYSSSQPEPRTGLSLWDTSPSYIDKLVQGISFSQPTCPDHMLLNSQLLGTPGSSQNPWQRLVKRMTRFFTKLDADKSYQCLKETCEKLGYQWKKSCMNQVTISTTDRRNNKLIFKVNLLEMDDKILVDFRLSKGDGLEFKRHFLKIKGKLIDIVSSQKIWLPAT
Briefly: Inhibition of recombinant His-tagged CHK1 using biotin-RSGLYRSPSMPENLNRPR as substrate after 1 hr by scintillation proximity assay. A general note: SPA uses beads or plates that emit light when radiolabelled molecules are held near them.

Assay [2] in a line: Selectivity ratio of IC50 for cyclinE/CDK2 to IC50 for CHK1.
Assay [3] addresses Cyclin-dependent kinase 2/cyclin E1 (Homo sapiens, UniProt P24941). Kind of assay: Inhibition of Cyclin E/CDK2 expressed in Sf9 cells using [33gamma]ATP after 1 hr by liquid scintillation counter.
Assay [4] deals with T1, Serine/threonine-protein kinase Chk1. Briefly: Inhibition of CHK1 in human U2OS cells pretreated with hydroxyurea assessed as gamma-H2AX level after 2 hrs by immunofluorescence assay. The format is cell-based.
Assay [5] has the same target. Briefly: Binding affinity to CHK1 by affinity-selection-mass […] assay.

For orientation: IC50 means the point on the concentration scale where inhibition reaches its midpoint. As to `O=C(Nc1ccccc1N1CCNCC1)c1cc(-c2ccc3c(c2)OCO3)on1`, the IC50 in assay [1] was 3400 nM. Turning to `N#Cc1ccc(-c2nc(C(=O)Nc3ccccc3N3CCNCC3)cs2)cn1`, the IC50 in assay [1] was 5200 nM. With `COc1ccc(-c2nc(C(=O)Nc3ccccc3N3CCNCC3)cs2)cc1OC`, the IC50 in assay [1] stood at 520 nM. Besides, the Ratio IC50 in assay [2] was 6.6. For `O=C(Nc1ccccc1N1CCNCC1)c1csc(-c2ccc(-c3ccccc3)s2)n1`, the IC50 in assay [1] was determined as 89 nM. In the case of `O=C(Nc1ccccc1N1CCNCC1)c1csc(-c2cc[nH]c2)n1`, the IC50 in assay [1] is 100 nM. In the case of `COc1ccc(-c2nc(C(=O)Nc3ccccc3N3CCNCC3)cs2)cc1`, the IC50 in assay [1] worked out at 72 nM. Besides, the Ratio IC50 in assay [2] turned out to be 5.

As to `O=C(Nc1ccccc1C1=CCNCC1)c1csc(-c2ccc3c(c2)CCO3)n1`, in assay [1], the IC50 is 760 nM. Further, the Ratio IC50 in assay [2] is 1.7.

Usually EC50 stands for the concentration that produces a half-maximal response. One may read the Kd as the concentration at which binding is half-saturated. Low values mean a tighter complex, high ones a looser complex. With `O=C(Nc1ccccc1N1CCNCC1)c1csc(-c2ccc3c(c2)CCO3)n1`, the IC50 in assay [3] came to 210 nM; in assay [1], 75 nM. For the same compound, in assay [4], the EC50 turned out to be 10000 nM. For the same compound, the Ratio IC50 in assay [2] was found to be 2.7. Also, the Kd in assay [5] is < 100 nM. Take `O=C(Nc1ccccc1N1CCNCC1=O)c1csc(-c2ccc3c(c2)CCO3)n1`: the IC50 in assay [1] is > 50000 nM. As to `O=C(Nc1ccccc1N1CCNCC1)c1csc(C#Cc2ccccc2)n1`, in assay [1], the IC50 worked out at 440 nM. Besides, the Ratio IC50 in assay [2] worked out at 32. Taken in the same sequence, the figures for `CN(C)c1ccc(-c2nc(C(=O)Nc3ccccc3N3CCNCC3)cs2)cc1` were 19 nM and 73. Taken in the same sequence, the figures for `O=C(Nc1ccccc1N1CCNCC1)c1csc(-c2cccnc2)n1` were 1400 nM and 0.8. Take `O=C1CN(c2ccccc2NC(=O)c2csc(-c3ccc4c(c3)CCO4)n2)CCN1`: the 50% inhibitory concentration (IC50) in assay [1] was > 50000 nM. For the compound `O=C(Nc1ccccc1N1CCNCC1)c1csc(-c2ccc[nH]2)n1`, the IC50 in assay [1] was 1200 nM.

On to `O=C(Nc1ccccc1N1CCNCC1)c1csc(-c2cc[nH]n2)n1`, for which the IC50 in assay [1] worked out at 110 nM. Further, in assay [2], the Ratio IC50 was 33. In the case of `O=C(Nc1ccccc1N1CCNCC1)c1csc(-c2ccc3[nH]ccc3c2)n1`, the IC50 in assay [1] worked out at 4 nM. For the same compound, the EC50 in assay [4] was found to be 3500 nM. Also, in assay [2], the Ratio IC50 worked out at 960.

As for `CC1CNCCN1c1ccccc1NC(=O)c1csc(-c2ccc3c(c2)CCO3)n1` (stereo unspecified), the IC50 in assay [1] is 280 nM. Turning to `CN(C)Cc1ccc(-c2nc(C(=O)Nc3ccccc3N3CCNCC3)cs2)cc1`, in assay [1], the IC50 is > 50000 nM. Same read-out and setting: the same measure for `O=C(Nc1ccccc1N1CCOCC1)c1csc(-c2ccc3c(c2)CCO3)n1`: > 50000 nM. With `C[C@@H]1CN(c2ccccc2NC(=O)c2csc(-c3ccc4c(c3)CCO4)n2)CCN1`, the half-maximal inhibitory concentration (IC50) in assay [1] stood at 120 nM. For the same compound, in assay [2], the Ratio IC50 was found to be 2. For `CC(=O)N1CCN(c2ccccc2NC(=O)c2csc(-c3ccc4c(c3)CCO4)n2)CC1` the same measures were 4100 nM and 0.34. Taken in the same sequence, the figures for `O=C(Nc1ccccc1N1CCNCC1)c1csc(-c2ccccc2)n1` were 87 nM and 12.

Turning to `O=C(Nc1ccccc1N1CCNCC1)c1csc(-c2cccs2)n1`, in assay [1], the IC50 turned out to be 36 nM. In assay [2], the Ratio IC50 is 16.

In the case of `C[C@H]1CN(c2ccccc2NC(=O)c2csc(-c3ccc4c(c3)CCO4)n2)CCN1`, the IC50 in assay [1] was 86 nM. Further, the Ratio IC50 in assay [2] turned out to be 3. For `O=C(Nc1ccccc1N1CCNCC1)c1csc(-c2cn[nH]c2)n1` the same measures were 190 nM and 0.67.

In the case of `O=C(Nc1ccccc1C1CCNCC1)c1csc(-c2ccc3c(c2)CCO3)n1`, the IC50 in assay [1] turned out to be 4500 nM. The Ratio IC50 in assay [2] worked out at 1.8. Regarding `O=C(Nc1ccccc1N1CCNCC1)c1csc(-c2ccncc2)n1`, in assay [1], the IC50 turned out to be 1500 nM. Further, the Ratio IC50 in assay [2] was determined as 0.54. For `COc1ccc(-c2nc(C(=O)Nc3ccccc3N3CCNCC3)cs2)cc1C` the same measures were 580 nM and 12. `O=C(Nc1ccccc1N1CCNCC1)c1csc(-c2ccc3c(c2)OCO3)n1`: the IC50 in assay [1] came out at 170 nM. The Ratio IC50 in assay [2] is 18. Taken in the same sequence, the figures for `O=C(Nc1ccccc1N1CCNCC1)c1csc(-c2ccsc2)n1` were 210 nM and 5. `O=C(Nc1ccccc1N1CCNCC1)c1csc(-c2ccc3occc3c2)n1`: the IC50 in assay [1] came out at 19 nM. Besides, the EC50 in assay [4] was determined as 2000 nM. In assay [2], the Ratio IC50 is 27. On to `O=C(Nc1ccccc1N1CCNCC1)c1csc(-c2cc3ccccc3s2)n1`, for which, in assay [1], the IC50 came to 7 nM. In addition, the EC50 in assay [4] is 1500 nM. Moreover, the Ratio IC50 in assay [2] turned out to be 33. As for `O=C(Nc1ccccc1N1CCNCC1)c1csc(-c2ccc3c(c2)OCCCO3)n1`, the IC50 in assay [1] came to 190 nM. Same read-out and setting: next, `CC#Cc1nc(C(=O)Nc2ccccc2N2CCNCC2)cs1`: 3900 nM.

Take `CN1CCN(c2ccccc2NC(=O)c2csc(-c3ccc4c(c3)CCO4)n2)CC1`: in assay [1], the IC50 turned out to be 2000 nM. Further, the Ratio IC50 in assay [2] came out at 0.16. On to `O=C(Nc1ccccc1N1CCNCC1)c1csc(-c2cncnc2)n1`, for which the IC50 in assay [1] was 13000 nM.

Turning to `O=C(Nc1ccccc1N1CCNCC1)c1csc(-c2ccc(-c3cccs3)s2)n1`, the IC50 in assay [1] was 130 nM. For the compound `O=C(Nc1ccccc1N1CCNCC1)c1csc(-c2ccc(Oc3ccccc3)cc2)n1`, the IC50 in assay [1] is 5 nM. Moreover, the EC50 in assay [4] was > 50000 nM. Further, the Ratio IC50 in assay [2] turned out to be 3600. On to `O=C(Nc1ccccc1N1CCNCC1)c1nc(-c2ccc3c(c2)CCO3)cs1`, for which the IC50 in assay [1] is > 50000 nM. On the same count and under the same terms, the same measure for `Cc1nc(-c2ccc3c(c2)CCO3)sc1C(=O)Nc1ccccc1N1CCNCC1`: 21000 nM.

Regarding `O=C(Nc1ccccc1N1CCNCC1)c1csc(-c2ccc3sccc3c2)n1`, the IC50 in assay [1] turned out to be 5 nM. For the same compound, the EC50 in assay [4] stood at 2500 nM. In addition, the Ratio IC50 in assay [2] amounted to 380. As to `O=C(Nc1ccccc1N1CCNCC1)c1csc(-c2csc3ccccc23)n1`, in assay [1], the IC50 is 69 nM. Also, the Ratio IC50 in assay [2] was 6.
